Measured values published in the supplement of paper PMC10307832.

Experiments:
Assay in all cases: relative viability (nuclei count vs DMSO), 5 days (fraction); higher = more cells survive
[1] = compound: COc1ccc(-c2ccc3c(N4CCOC[C@@H]4C)nc(N4CCOC[C@@H]4C)nc3n2)cc1CO [AZD8055] + COc1cccc2cc(-c3nc([C@H]4CC[C@H](C(=O)O)CC4)n4ncnc(N)c34)[nH]c12 [OSI-027] (partner 0.5 µM)
How it was run: (§1)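 Lung cancer cell lines were seeded in 1536-well plates and dosed by pin tool the next day, with either a single drug or a fixed anchor-drug dose combined with five library-drug doses (not always all listed) spaced in √10 steps. Five days later, one step fixed the cells and stained their nuclei (final 0.05% Triton X-100, 1% formaldehyde, 1 ug/ml Hoechst), and nuclei were counted on 4× images. Relative viability is the nuclei count in treated wells divided by the count in vehicle wells, and each value is the median of duplicate plates.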

[2] = compound: COc1ccc(-c2ccc3c(N4CCOC[C@@H]4C)nc(N4CCOC[C@@H]4C)nc3n2)cc1CO [AZD8055] + CS(=O)(=O)CCNCc1ccc(-c2ccc3ncnc(Nc4ccc(OCc5cccc(F)c5)c(Cl)c4)c3c2)o1 [Lapatinib] (partner 2 µM)
How it was run: as §1

[3] = compound: COc1ccc(-c2ccc3c(N4CCOC[C@@H]4C)nc(N4CCOC[C@@H]4C)nc3n2)cc1CO [AZD8055] + CC(=O)Nc1cccc(-n2c(=O)n(C3CC3)c(=O)c3c(Nc4ccc(I)cc4F)n(C)c(=O)c(C)c32)c1 [Trametinib] (partner 0.02 µM)
How it was run: as §1

[4] = compound: COc1ccc(-c2ccc3c(N4CCOC[C@@H]4C)nc(N4CCOC[C@@H]4C)nc3n2)cc1CO [AZD8055] + C[C@]1(O)C[C@@H](c2nc(-c3ccc4ccc(-c5ccccc5)nc4c3)c3c(N)nccn32)C1 [Linsitinib] (partner 1 µM)
How it was run: as §1

Cell Line	relative viability ([1]; first compound 0.01 µM)	relative viability ([1]; first compound 0.03162 µM)	relative viability ([1]; first compound 0.1 µM)	relative viability ([1]; first compound 0.3162 µM)	relative viability ([1]; first compound 1 µM)	relative viability ([2]; first compound 0.01 µM)	relative viability ([2]; first compound 0.03162 µM)	relative viability ([2]; first compound 0.1 µM)	relative viability ([2]; first compound 0.3162 µM)	relative viability ([2]; first compound 1 µM)	relative viability ([3]; first compound 0.01 µM)	relative viability ([3]; first compound 0.03162 µM)	relative viability ([3]; first compound 0.1 µM)	relative viability ([3]; first compound 0.3162 µM)	relative viability ([3]; first compound 1 µM)	relative viability ([4]; first compound 0.01 µM)	relative viability ([4]; first compound 0.03162 µM)	relative viability ([4]; first compound 0.1 µM)	relative viability ([4]; first compound 0.3162 µM)	relative viability ([4]; first compound 1 µM)
201T	0.786	0.746	0.676	0.484	0.383	1.01	1.04	0.986	0.788	0.7	0.7	0.689	0.629	0.519	0.492	0.997	0.906	0.758	0.609	0.554
A549						0.801	0.651	0.404	0.307	0.122						0.552	0.382	0.246	0.11	0.0862
A-427	0.49	0.491	0.545	0.493	0.434	1.12	1.03	0.865	0.665	0.546	0.746	0.577	0.488	0.351	0.334	1.13	0.95	0.927	0.783	0.547
ABC-1	0.537	0.551	0.635	0.345	0.36	1.2	0.939	1.2	0.652	0.611						0.845	0.484	0.551	0.425	0.323
BEN	0.308	0.374	0.322	0.291	0.251	0.607	0.402	0.353	0.317	0.304	0.87	0.626	0.569	0.467	0.463	0.955	0.574	0.41	0.325	0.279
CAL-12T	0.717	0.738	0.614	0.208	0.26	0.67	0.601	0.369	0.37	0.343	0.33	0.308	0.227	0.186	0.196	0.84	0.658	0.465	0.211	0.258
COR-L23	0.765	0.588	0.526	0.297	0.256	1.36	0.804	0.741	0.33	0.219	0.512	0.528	0.334	0.127	0.157	0.977	0.578	0.392	0.152	0.14
COR-L 105	0.682	0.702	0.615	0.382	0.383	0.353	0.284	0.318	0.346	0.389	0.416	0.412	0.44	0.404	0.416	0.833	0.941	0.5	0.315	0.297
Calu-6						1.22	0.926	0.816	0.718	0.485						1.09	0.77	0.637	0.356	0.329
ChaGo-K-1	0.584	0.576	0.624	0.56	0.541						1.03	0.884	0.858	0.66	0.628					
EBC-1						0.214	0.213	0.219	0.231	0.199						1.06	0.724	0.437	0.235	0.16
EKVX	0.753	0.745	0.665	0.51	0.411	0.193	0.181	0.155	0.132	0.132	0.339	0.389	0.296	0.247	0.227	1.05	0.947	0.604	0.384	0.24
EMC-BAC-2	0.364	0.387	0.358	0.291	0.284	0.867	0.777	0.74	0.403	0.406	0.87	0.818	0.733	0.363	0.434	0.784	0.65	0.53	0.337	0.3
EPLC-272H	0.252	0.255	0.28	0.228	0.243	0.735	0.75	0.549	0.471	0.459	0.278	0.257	0.227	0.189	0.131	1.1	0.926	0.669	0.404	0.373
H3255	0.706	0.572	0.587	0.454	0.423	0.228	0.209	0.227	0.212	0.229	0.687	0.588	0.455	0.306	0.322	0.925	0.858	0.63	0.468	0.277
HARA	0.612	0.641	0.419	0.419	0.249	0.75	0.614	0.408	0.326	0.224		0.671	0.497	0.285	0.223	0.942	0.998	0.517	0.303	0.202
HCC-15	0.805	0.732	0.658	0.38	0.303	0.834	0.877	0.886	0.474	0.333	0.373	0.337	0.271	0.167	0.186	0.778	0.808	0.644	0.467	0.29
HCC-44	0.6	0.526	0.483	0.267	0.308	1.09	0.997	0.769	0.565	0.443	0.994	1.16	0.907	0.802	0.731	0.565	0.506	0.298	0.198	0.226
